In US20200278355A1, “CONJUGATED PROTEINS AND USES THEREOF” (THE SCRIPPS RESEARCH INSTITUTE, priority 2017, published 2020):

Target: T1, TXN2 (Homo sapiens, UniProt Q99757)
T1 construct: H460 cells or H460 cells expressing luciferase in a 10 cm plate were incubated with indicated compounds; endogenous in cells; host or cells: H460
Assay: isoTOP-ABPP of compound-treated H460 cells: TXN2
Assay type: cell-based
Conditions: TXN2 C90; 40 μM
Experimental: For analysis of NR0B1 ligands or control compound reactivity, H460 cells or H460 cells expressing luciferase in a 10 cm plate were incubated with indicated compounds in serum/dye-free RPMI for 3 hours at 37° C. Cells were washed once ice-cold PBS and lysed in 1% Triton X-100 dissolved in PBS with protease inhibitors (Sigma) by sonication. Samples were clarified by centrifugation for 10 min at 16,000×g. Lysate was adjusted to 1.5 mg ml^−1 in 500 μL.
Samples were labeled for 1 h at ambient temperature with 100 μM iodoacetamide alkyne (1, IA-alkyne, 5 μL of 10 mM stock in DMSO). Samples were conjugated by copper-catalyzed azide-alkyne cycloaddition (CuAAC) to isotopically labeled, TEV-cleavable tags (TEV-tags). Heavy CuAAC reaction mixtures was added to the DMSO-treated or shGFP control samples and light CuAAC reaction mixture was added to compound-treated or shNRF2 samples. The CuAAC reaction mixture consisted of TEV tags (light or heavy, 10 μL of 5 mM stocks in DMSO, final concentration=100 μM), 1 mM tris(2-carboxyethyl)phosphine hydrochloride (TCEP; fresh 50× stock in water, final concentration=1 mM), ligand (17× stock in DMSO:t-butanol 1:4, final concentration=100 μM) and 1 mM CuSO4 (50× stock in water, final concentration=1 mM). The samples were allowed to react for 1 h at which point the samples were centrifuged (16,000×g, 5 min, 4° C.). […]

T1 sequence (Q99757 60-166): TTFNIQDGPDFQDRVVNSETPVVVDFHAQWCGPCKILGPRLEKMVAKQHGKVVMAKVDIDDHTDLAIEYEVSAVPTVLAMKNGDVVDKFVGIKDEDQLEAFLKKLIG

SMILES: O=C(c1ccc(N2CCOCC2)cc1)N1CCCC(N(Cc2ccccc2)C(=O)CCl)CC1 (stereo not shown) [BPK-29, N-benzyl-2-chloro-N-(1-(4-morpholinobenzoyl)azepan-4-yl)acetamide]
- BPK-29-competed isoTOP-ABPP analysis: Yes (Competed defined as showing R value ≥ 3.0 at 40 μM of test compound)
